Measured values as given in paper PMC11579541, “In vitro, in vivo, and in silico approaches for evaluating the preclinical DMPK profiles of ammoxetine, a novel chiral serotonin and norepinephrine reuptake inhibitor” (Frontiers in Pharmacology, 2024).
Read-outs that look alike come from different tables or passages of the source.

Assay: PK studies in beagle dogs
Type: in vivo
Settings: for AUC(0-inf) / AUC(0-t) / MRT last / MRT inf / Tmax / half-life / Cmax / CL/F / Vd/F: beagle; for MRT last: read-out: MRT(0-t); for MRT inf: read-out: MRT(0-∞); for half-life: read-out: t1/2z (converted); for CL/F: read-out: CLz/F (converted); for Vd/F: read-out: Vz/F
Experimental: For the PK studies in rats and dogs, a total of 18 SD rats and 15 male beagle dogs were randomly divided into three groups, with six rats or five dogs per group, respectively. Prior to the experiments, all animals underwent a 12-h fasting period, while having free access to water. The animals were administered single oral doses of ammoxetine in three different dose levels: 8 mg/kg, 20 mg/kg, and 50 mg/kg for rats, and 2 mg/kg, 5 mg/kg, and 12.5 mg/kg for dogs, representing low, medium, and high doses. Serial blood samples were collected from the rats at 0, 2, 5, 15, and 30 min, as well as 1, 2, 4, 6, 8, 12, and 24 h post-dosing. For the dogs, blood samples were collected at 0, 5, 15, 30, and 45 min, as well as 1, 2, 4, 6, 8, 12, and 24 h post-dosing. Approximately 0.3 mL of blood was collected from the rats, while 2 mL of blood was collected from the dogs. The blood samples were collected into heparinized tubes. Following centrifugation, plasma samples were obtained and stored at −30°C until further analysis.
For the absolute bioavailability (F, %) study in dogs, the dogs initially received a single gastric gavage of a low dose (2 mg/kg) of ammoxetine, followed by a 1-week washout period. After the washout, the same dose of ammoxetine was administered intravenously (i.v.). To assess the effects of nonfasting on ammoxetine PK, dogs that received a medium dose (5 mg/kg) of ammoxetine via gastric gavage underwent a radical washout period of 1 week. Subsequently, they were administered the same dose of ammoxetine via gastric gavage under nonfasting conditions. To compare sex differences in ammoxetine PK, an additional five female beagle dogs were administered a medium dose (5 mg/kg) of ammoxetine via gastric gavage after a 12-h overnight fast. Blood samples (2 mL) were collected from these dogs into heparinized tubes at predose and at specified time points: 5, 15, 30, and 45 min, as well as 1, 2, 4, 6, 8, 12, and 24 h postdose. For the repeat-dose study, after completing blood collection during the initial administration, dogs receiving a single gastric gavage of a medium dose (5 mg/kg) of ammoxetine under fasting conditions were subsequently orally dosed with seven repeat doses of ammoxetine (5 mg/kg) every 12 h. Trough blood samples were collected before the fourth to last administration to ensure steady-state blood concentrations (C ss ) were achieved. Approximately 2 mL of blood was collected at specified time points after the last dose and transferred into heparinized tubes. All blood samples were then centrifuged at 4,000 r/min for 20 min to obtain plasma samples, which were stored at −30°C until analysis.
To determine the concentration of ammoxetine, 100 μL of L-phencynonate (IS, 50 ng/mL) and 300 μL of methanol were added to 100 μL of plasma samples from rats or dogs. After thorough vortexing, the mixture was centrifuged at 13,800×g for 10 min. The supernatants were then subjected to analysis using LC-MS-MS methods. PK parameters were calculated using DAS (Drug And Statistics for Windows) version 2.0, developed by the Shanghai University of Traditional Chinese Medicine, Shanghai, China. The F was determined by comparing the plasma area under the concentration-time curve (AUC) values after oral (p.o.) and intravenous (i.v.) administration of ammoxetine. F was calculated using the formula: F=AUCp.o./AUCi.v.×100% . Statistical analyses were performed using OriginPro 8.6 software. Paired sample or student’s t-test, as well as one-way ANOVA, were employed to compare the means of two or three groups, with a significance level set at p < 0.05.

[1] = beagle dogs, 2 mg/kg p.o. vs i.v.
[2] = beagle dogs, 5 mg/kg oral every 12 h, last time of multiple administrations
[3] = dog, plasma, po, 5 mg/kg, beagle dogs, 5 mg/kg oral every 12 h, last time of multiple administrations
[4] = female, dog, plasma, po, 5 mg/kg, female beagle dogs, 5 mg/kg oral, fasted
[5] = male, dog, plasma, iv, 2 mg/kg, beagle dogs, 2 mg/kg intravenous administration
[6] = male, dog, plasma, po, 2 mg/kg, beagle dogs, 2 mg/kg single oral dose
[7] = male, dog, plasma, po, 5 mg/kg, beagle dogs, 5 mg/kg oral every 12 h, last time of multiple administrations
[8] = male, dog, plasma, po, 5 mg/kg, beagle dogs, 5 mg/kg oral, fed (nonfasting)
[9] = male, dog, plasma, po, 5 mg/kg, male beagle dogs, 5 mg/kg single oral dose, fasted (first dose)
[10] = male, dog, plasma, po, 12.5 mg/kg, beagle dogs, 12.5 mg/kg single oral dose

CNCC[C@H](Oc1cccc2c1OCO2)c1cccs1 [ammoxetine]
F (absolute bioavailability) based on AUC(0-t) [1]: 41.76 ± 9.25% | F (absolute bioavailability) based on AUC(0-∞) [1]: 41.94 ± 9.31% | trough concentration (beagle dogs, 5 mg/kg oral every 12 h, before the 4th dose): 84.17 ± 50.58 ng/mL | trough concentration (beagle dogs, 5 mg/kg oral every 12 h, before the 5th dose): 64.21 ± 31.71 ng/mL | trough concentration (beagle dogs, 5 mg/kg oral every 12 h, before the 6th dose): 86.13 ± 43.95 ng/mL | trough concentration (beagle dogs, 5 mg/kg oral every 12 h, before the 7th dose): 95.71 ± 39.83 ng/mL | Cav [2]: 337.19 ± 112.27 ng/mL | Cmin [2]: 95.71 ± 39.83 ng/mL | DF (degree of fluctuation) [2]: 2.00 ± 0.45 | AUC(0-inf) [3]: 5000 ng·h/mL | AUC(0-t) [3]: 4900 ng·h/mL | MRT last [3]: 5.76 ± 0.6 h | MRT inf [3]: 6.21 ± 0.73 h | Tmax (dog, plasma, po, 5 mg/kg, beagle dogs, 5 mg/kg oral every 12 h, last time of multiple administrations, read-out: Tmax): 1.1 ± 0.52 h | half-life [3]: 4.13 ± 0.85 h | AUC (dog, plasma, beagle dogs, 5 mg/kg oral every 12 h, last time of multiple administrations): 4050 ng·h/mL | AUC(0-inf) [4]: 1660 ng·h/mL | AUC(0-t) [4]: 1640 ng·h/mL | Cmax [4]: 476 ± 284 ng/mL | CL/F [4]: 71.5 mL/min/kg | MRT last [4]: 3.74 ± 0.78 h | MRT inf [4]: 3.88 ± 0.83 h | Tmax (female, dog, plasma, po, 5 mg/kg, female beagle dogs, 5 mg/kg oral, fasted, read-out: Tmax): 0.85 ± 0.22 h | Vd/F [4]: 20.9 ± 12.3 L/kg | half-life [4]: 3.45 ± 0.4 h | AUC(0-inf) [5]: 1010 ng·h/mL | AUC(0-t) [5]: 1010 ng·h/mL | Cmax [5]: 649 ± 119 ng/mL | MRT last [5]: 2.3 ± 0.29 h | MRT inf [5]: 2.33 ± 0.29 h | Tmax (male, dog, plasma, iv, 2 mg/kg, beagle dogs, 2 mg/kg intravenous administration, read-out: Tmax): 0.05 ± 0.03 h | half-life [5]: 2.72 ± 0.51 h | AUC(0-inf) [6]: 420 ± 108 ng·h/mL | AUC(0-t) [6]: 418 ± 108 ng·h/mL | Cmax [6]: 165 ± 49.5 ng/mL | CL/F [6]: 83.5 mL/min/kg | MRT last [6]: 2.94 ± 0.55 h | MRT inf [6]: 3.08 ± 0.69 h | Tmax (male, dog, plasma, po, 2 mg/kg, beagle dogs, 2 mg/kg single oral dose, read-out: Tmax): 0.75 ± 0.18 h | Vd/F [6]: 24.9 ± 13 L/kg | half-life [6]: 3.4 ± 1.28 h | Cmax [7]: 761 ± 254 ng/mL | CL/F [7]: 18.7 mL/min/kg | Vd/F [7]: 6.63 ± 2.77 L/kg | AUC(0-inf) [8]: 1960 ± 742 ng·h/mL | AUC(0-t) [8]: 1950 ± 738 ng·h/mL | Cmax [8]: 522 ± 234 ng/mL | CL/F [8]: 49.3 mL/min/kg | MRT last [8]: 4.14 ± 0.54 h | MRT inf [8]: 4.28 ± 0.59 h | Tmax (male, dog, plasma, po, 5 mg/kg, beagle dogs, 5 mg/kg oral, fed (nonfasting), read-out: Tmax): 0.8 ± 0.21 h | Vd/F [8]: 14 ± 6.8 L/kg | half-life [8]: 3.28 ± 0.28 h | AUC(0-inf) [9]: 1980 ± 533 ng·h/mL | AUC(0-t) [9]: 1960 ± 527 ng·h/mL | Cmax [9]: 524 ± 214 ng/mL | CL/F [9]: 45.2 mL/min/kg | MRT last [9]: 4.4 ± 0.65 h | MRT inf [9]: 4.7 ± 0.85 h | Tmax (male, dog, plasma, po, 5 mg/kg, male beagle dogs, 5 mg/kg single oral dose, fasted (first dose), read-out: Tmax): 0.8 ± 0.11 h | Vd/F [9]: 14.9 ± 5.08 L/kg | half-life [9]: 3.81 ± 0.52 h | AUC(0-inf) [10]: 8400 ng·h/mL | AUC(0-t) [10]: 7900 ng·h/mL | Cmax [10]: 1470 ng/mL | CL/F [10]: 25.8 mL/min/kg | MRT last [10]: 5.43 ± 1.18 h | MRT inf [10]: 7.53 ± 4.7 h | Tmax (male, dog, plasma, po, 12.5 mg/kg, beagle dogs, 12.5 mg/kg single oral dose, read-out: Tmax): 1.4 ± 0.6 h | Vd/F [10]: 13.9 ± 11 L/kg | half-life [10]: 6.2 ± 4.43 h | Tmax (male, dog, plasma, po, 12.5 mg/kg, beagle dogs, oral 2, 5 and 12.5 mg/kg, read-out: Tmax values, range): 0.75 to 1.4 h | bioavailability (male, dog, plasma, oral, beagle dogs, 2 mg/kg, approximate value, read-out: absolute bioavailability): ~42% | clearance (male, dog, plasma, beagle dogs, 2 mg/kg intravenous administration, total clearance, read-out: CLz (converted)): 34 mL/min/kg | Vd (male, dog, plasma, beagle dogs, 2 mg/kg intravenous administration, volume of distribution, read-out: Vz): 7.82 ± 1.2 L/kg
